Measured values taken from patent US8236510B2, “Protein showing enhanced expression in cancer cells” (Agensys, Inc., priority 1999, dated 2012).
Entries after “also recorded” stand apart in the source; their conditions may differ. Ends that are not written are not given here.

Legend:
LAPC-9 cells = assay: Androgen regulation in LAPC-9 cells (Northern blot); assay type: cell-based; conditions: charcoal-stripped medium
Procedure: In order to assay for androgen regulation of 101P3A11 expression, LAPC-9 cells were grown in charcoal-stripped medium and stimulated with the synthetic androgen mibolerone, for either 14 or 24 hours (FIG. 15A, FIG. 15B, and FIG. 15C). Northern blots with 10 μg of total RNA/lane were probed with the 101P3A11 sequences (FIG. 15A). A picture of the ethidium-bromide staining of the RNA gel is also presented (FIG. 15C). […] The experimental samples were confirmed by testing for the expression of the androgen-regulated prostate cancer gene PSA (FIG. 15B).

[1] = test system: ERK phosphorylation in PC3-101P3A11 cells; assay: ERK phosphorylation in PC3-101P3A11 and PC3-neo cells (anti-Phospho-ERK Western blot); assay type: cell-based, human; conditions: for inhibition of ERK phosphorylation and activation: PC3-101P3A11 and 3T3-101P3A11 cells, FBS
Procedure: Using Western blotting and other techniques, the ability of 101P3A11 to regulate these pathways is confirmed. Cells expressing or lacking 101P3A11 are either left untreated or stimulated with cytokines, androgen and anti-integrin antibodies. Cell lysates were analyzed using anti-phospho-specific antibodies (Cell Signaling, Santa Cruz Biotechnology) in order to detect phosphorylation and regulation of ERK, p38, AKT, PI3K, PLC and other signaling molecules. […] In the experiment, data shown in FIG. 26, control 3T3-neo and 3T3-101P3A11 cells were either treated with 0.5 or 10% FBS and whole cell lysates were analyzed by anti-phosphotyrosine Western blotting.
In this experiment, control PC3-neo cells and PC3-101P3A11 cells were left untreated (0.1% FBS) or were stimulated with 10% FBS, lipophosphatidic acid (LPA), gastrin releasing peptide (GRP), leukotriene (LKB4) or platelet activating factor (PAF). The cells were lysed and analyzed by Western blotting using anti-Phospho-ERK (FIG. 27A) or anti-ERK (FIG. 27B) mAb. […] In order to delineate the signaling pathway by which 101P3A11 mediates ERK phosphorylation in cancer cells, it was confirmed which of the two pathway inhibitors: MEK inhibitor PD98059 or the p38 inhibitor SB203580 regulate 101P3A11 mediated ERK phosphorylation (FIG. 28). […] Cells were lysed and analyzed by Western blotting using anti-Phospho-ERK or anti-ERK mAb. Treatment with 10% FBS or with GRP induced the phosphorylation of ERK in PC3-101P3A11 but not in control PC3-neo cells. 101P3A11-mediated ERK phosphorylation was inhibited by the MEK-1 inhibitor PD98059 but not the p38 inhibitor SB203580 or genistein.
Results in FIGS. 26-28 indicate that 101P3A11 regulates the activity of kinases, including ERK, and phosphatases. In order to confirm the association of 101P3A11 with phosphatase activity, the effect of the protein phosphatase inhibitor sodium orthovanadate on 101P3A11 mediated ERK phosphorylation was determined (FIG. 29). PC3-neo and PC3-101P3A11 cells were grown in media alone or in the presence of sodium orthovanadate (Na3VO4), and were stimulated with 0.1% or 10% FBS. Cells were lysed and analyzed by Western blotting using anti-Phospho-ERK or anti-ERK mAb. […] Results in FIG. 29 confirm the contribution of protein phosphatases to 101P3A11 mediated signaling.
In order to determine whether 101P3A11 signaling results in the activation of EGFR, we compared the effect of the EGFR inhibitor, AG1517, on EGFR- and 101P3A11-mediated ERK phosphorylation (FIG. 30). In FIG. 30, PC3-neo and PC3-101P3A11 cells were grown in media alone (0.1% FBS) or in the presence of AG1517. The cells were stimulated with 0.1% or 10% FBS, GRP or EGF, lysed and analyzed by Western blotting using anti-Phospho-ERK or anti-ERK mAb. Treatment with 10% FBS, GRP and EGF induced ERK phosphorylation in PC3-101P3A11 cells. […] Data in FIG. 30 indicate that some cross talk occurred between 101P3A11 and EGFR signaling pathways.
(§1) Since adenylate cyclase activity modulates intracellular levels of cAMP and induce downstream signaling events such as activation of protein kinase A, calcium and ERK MAPK signaling (Pierce K. L., et al, Oncogene. 2001, 20: 1532), we determined that PTX, an inhibitor of adenylate cyclase signaling, prevents 101P3A11-mediated ERK phosphorylation along with inhibiting cAMP accumulation (FIG. 33 and FIG. 34). PC3-neo and PC3-101P3A11 cells were grown overnight in 0.1% FBS in media alone or in the presence of pertussis toxin (PTX). Cells were stimulated with 0.1% or 10% FBS (FIG. 33) or 10% FBS, EGF or GRP (FIG. 34). Cells were lysed and analyzed by Western blotting using anti-Phospho-ERK mAb. Expression of 101P3A11 mediated ERK phosphorylation by 10% FBS in PC3 cells, which was inhibited by PTX (FIG. 33 and FIG. 34).
GPCR transmit their signal by activating trimeric G proteins. […]

3T3-101P3A11 cells = assay: Proliferation of 3T3 and 3T3-101P3A11 cells (Alamar blue); assay type: cell-based; conditions: for effect on proliferation: control 3T3 cells
3T3-101P3A11 tumors = assay: Subcutaneous growth of 3T3-101P3A11 tumors in SCID mice; assay type: in vivo
Procedure: (2) Regulated expression under control of an inducible vector system, such as ecdysone, tet, etc., can be used provided such promoters are compatible with the host cell systems. […] FIG. 21 compares subcutaneous growth of control 3T3-neo and 3T3-101P3A11 cells. One million cells stably expressing neo or 101P3A11 were injected subcutaneously in SCID mice along with matrigel. Tumor volume was evaluated by caliper measurements. […] Additionally, SCID mice were implanted with the same 3T3-101P3A11 cells orthotopically in the prostate to determine if 101P3A11 has an effect on local growth in the prostate or on the ability of the cells to metastasize, specifically to lungs or lymph nodes. […] In an analogous manner, cells can be implanted orthotopically in the bladder, colon or kidney. (Saffran, D., et al., PNAS 10:1073-1078; Fu, X., et al., Int. J. Cancer, 1991, 49: p. 938-939; Chang, S., et al., Anticancer Res., 1997, 17: p. 3239-3242; Peralta, E. A., et al., J. Urol., 1999, 162: p. 1806-1811). The tumor enhancing effect of 101P3A11 was also observed when 101P3A11 is expressed in prostate cancer cells such as PC3 and introduced into the prostate of SCID mice (Figure M11). A 2.5 fold increase in tumor weight is observed in tumors expressing 101P3A11 relative to control cells.
Furthermore, these assays is useful to confirm the anti-101P3A11 inhibitory effects of candidate therapeutic compositions, such as for example, 101P3A11 antibodies or intrabodies, and 101P3A11 antisense molecules or ribozymes, or 101P3A11 directed small molecules. In FIG. 22, we depict the effect of a small molecule, pertussis toxin (PTX) on tumor formation by 3T3-101P3A11 cells. In this experiment, SCID mice were injected with 3T3-101P3A11 alone or in conjunction with PTX. Each mouse was given 5 doses of PTX at 3-4 days interval. Tumor volume was evaluated by caliper measurements. […] Similarly, treatment with the G-protein inhibitor suramin inhibits the growth of 3T3-101P3A11 tumors (Figure M13).

PC3-101P3A11 cells = assay: Proliferation of PC3-101P3A11 and PC3-neo cells; assay type: cell-based, human; conditions: PC3-101P3A11 cells grown in 5% FBS
Procedure: as §1
GPCR transmit their signal by activating trimeric G proteins. Once GPCRs are activated, the associated Ga subunit binds GTP, dissociates from the receptor and participates in downstream signaling events (Schild, D., and Restrepo, D. Physiol Rev. 1998, 78:429-66). In order to determine that inhibition of Ga subunits has an effect on 101P3A11 mediated cell growth, the effect of two Ga inhibitors on the proliferation of 3T3-101P3A11 cells was investigated. Control 3T3 and 3T3-101P3A11 cells were grown in the presence or absence of suramin or its derivative NF 449 (Sigma). Cells were analyzed for proliferation 72 hours later (FIG. 35). The experiment was performed in triplicate. […] This response was 101P3A11 specific as suramin and NF449 had no effect on the proliferation of control 3T3 cells. Similarly, inhibition of G protein activation by suramin and NF449 in PC3 cells inhibits the proliferation of PC3-101P3A11 cells grown in 5% FBS (Figure M4). […] This ERK phosohorylation and activation was inhibited by suramin and NF449 in PC3-101P3A11 and 3T3-101P3A11 cells. ERK phosphorylation was inhibited in a dose dependent manner in PC3-101P3A11 cells treated with suramin. […]

[2] = 101P3A11 expressing 3T3 cells, Alamar blue after 72 hours

Compound: C[C@@H]1CC2=CC(=O)CC[C@@H]2[C@H]2CC[C@@]3(C)[C@@H](CC[C@]3(C)O)[C@@H]21 [mibolerone]
- expression of PSA (LAPC-9 cells; 14 and 24 hours): induced
- expression of 101P3A11 (LAPC-9 cells; 14 or 24 hours): not regulated

Compound: gastrin releasing peptide (VPLPAGGGTVLTKMYPRGNHWAVGHLM; ends and bridges not checked; UniProt P07492 24-50, looked up) [GRP, GPCR ligand]
- ERK phosphorylation by GPCR ligands ([1]; PC3-101P3A11 cells): significant ERK phosphorylation

Compound: [Na+].[Na+].[Na+].[O]=[V]([O-])([O-])[O-] [Na3VO4, sodium orthovanadate]
- increase in ERK phosphorylation ([1]; PC3-101P3A11 cells): 4.5 fold
- increase in ERK phosphorylation ([1]; PC3-neo cells): two-fold increase

Compound: CCCCC/C=C\C[C@@H](O)/C=C/C=C/C=C\[C@@H](O)CCCC(=O)O [LKB4, leukotriene]
- ERK phosphorylation by GPCR ligands ([1]; PC3-101P3A11 cells): more modest level of ERK phosphorylation

Compound: lipophosphatidic acid [LPA]
- ERK phosphorylation by GPCR ligands ([1]; PC3-101P3A11 cells): significant ERK phosphorylation

Compound: platelet activating factor [PAF]
- ERK phosphorylation by GPCR ligands ([1]; PC3-101P3A11 cells): significant ERK phosphorylation

Compound: COc1cc2ncnc(Nc3cccc(Br)c3)c2cc1OC [AG1517]
- inhibition of 101P3A11 mediated ERK phosphorylation ([1]; PC3-101P3A11 cells treated with 10% FBS): partially inhibits
- inhibition of EGF-mediated ERK phosphorylation ([1]; control and 101P3A11-expressing PC3 cells, EGF): completely inhibited; also recorded: inhibits

Compound: Cc1ccc(C(=O)Nc2ccc(S(=O)(=O)O)c3cc(S(=O)(=O)O)cc(S(=O)(=O)O)c23)cc1NC(=O)c1cccc(NC(=O)Nc2cccc(C(=O)Nc3cc(C(=O)Nc4ccc(S(=O)(=O)O)c5cc(S(=O)(=O)O)cc(S(=O)(=O)O)c45)ccc3C)c2)c1 [suramin]
- inhibition of proliferation (3T3-101P3A11 cells; 3T3-101P3A11 cells, 72 hours): 60%
- inhibition of proliferation (3T3-101P3A11 cells; [2]): inhibited
- effect on proliferation (3T3-101P3A11 cells; 72 hours): no effect
- inhibition of growth of 3T3-101P3A11 tumors (3T3-101P3A11 tumors): inhibits
- inhibition of proliferation (PC3-101P3A11 cells): inhibits
- inhibition of ERK phosphorylation and activation [1]: inhibited

Compound: O=C(Nc1cc(C(=O)Nc2ccc(S(=O)(=O)O)cc2S(=O)(=O)O)cc(C(=O)Nc2ccc(S(=O)(=O)O)cc2S(=O)(=O)O)c1)Nc1cc(C(=O)Nc2ccc(S(=O)(=O)O)cc2S(=O)(=O)O)cc(C(=O)Nc2ccc(S(=O)(=O)O)cc2S(=O)(=O)O)c1 [NF449]
- inhibition of proliferation (3T3-101P3A11 cells; 3T3-101P3A11 cells, 72 hours): 80%
- inhibition of proliferation (3T3-101P3A11 cells; [2]): inhibited
- effect on proliferation (3T3-101P3A11 cells; 72 hours): no effect
- inhibition of proliferation (PC3-101P3A11 cells): inhibits
- inhibition of ERK phosphorylation and activation [1]: inhibited

Compound: COc1cccc(-c2cc(=O)c3ccccc3o2)c1N [PD98059]
- inhibition of 101P3A11-mediated ERK phosphorylation ([1]; PC3-101P3A11 cells stimulated with FBS or GRP): inhibited
